Reference: ChEMBL document CHEMBL1201862, “PubChem BioAssay data set” (2004)
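Method: 48-hour compound exposure of cells in 96-well plates, five concentrations, linear interpolation of endpoints. GI50 marks 50% less growth.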 Active and inactive are the calls of the source. Cut-off read from the data, not from the text of the source: active = GI50 up to about 1.1 µM and inactive = higher.

What was measured:
Experiment in all cases: DTP human tumour cell line panel, 48 h
786-0 = system: 786-0
A498 = system: A498
A549 = system: A549
ACHN = system: ACHN
BT-549 = system: BT-549
CAKI-1 = system: CAKI-1
CCRF-CEM = system: CCRF-CEM
COLO 205 = system: COLO 205
DU-145 = system: DU-145
EKVX = system: EKVX
HCC 2998 = system: HCC 2998
HCT-116 = system: HCT-116
HCT-15 = system: HCT-15
HOP-62 = system: HOP-62
HOP-92 = system: HOP-92
HT-29 = system: HT-29
Hs-578T = system: Hs-578T
IGROV-1 = system: IGROV-1
KM12 = system: KM12
LOX IMVI = system: LOX IMVI
M14 = system: M14
MCF7 = system: MCF7
MDA-MB-231 = system: MDA-MB-231
MDA-MB-435 = system: MDA-MB-435
MDA-N = system: MDA-N
MOLT-4 = system: MOLT-4
Malme-3M = system: Malme-3M
NCI-H226 = system: NCI-H226
NCI-H23 = system: NCI-H23
NCI-H460 = system: NCI-H460
NCI-H522 = system: NCI-H522
OVCAR-3 = system: OVCAR-3
OVCAR-4 = system: OVCAR-4
OVCAR-5 = system: OVCAR-5
OVCAR-8 = system: OVCAR-8
PC-3 = system: PC-3
RPMI-8226 = system: RPMI-8226
RXF 393 = system: RXF 393
SF-268 = system: SF-268
SF-295 = system: SF-295
SF-539 = system: SF-539
SK-MEL-28 = system: SK-MEL-28
SK-MEL-2 = system: SK-MEL-2
SK-MEL-5 = system: SK-MEL-5
SK-OV-3 = system: SK-OV-3
SN12C = system: SN12C
SNB-19 = system: SNB-19
SNB-75 = system: SNB-75
SR = system: SR
SW-620 = system: SW-620
T47D = system: T47D
TK-10 = system: TK-10
U-251 = system: U-251
UACC-257 = system: UACC-257
UACC-62 = system: UACC-62
UO-31 = system: UO-31
HL-60 = system: HL-60
K562 = system: K562
NCI/ADR-RES = system: NCI/ADR-RES

For `COC(=O)/C=C/c1ccc(OP(=O)(O)O)c(OC)c1`, the GI50 (786-0) was > 100 µM (inactive), the GI50 (A498) was > 100 µM (inactive) and the GI50 (A549) was > 100 µM (inactive). The GI50 (ACHN) was > 100 µM (inactive), the GI50 (BT-549) was > 100 µM (inactive) and the GI50 (CAKI-1) was > 100 µM (inactive). The GI50 (CCRF-CEM) was > 100 µM (inactive), the GI50 (COLO 205) was > 100 µM (inactive) and the GI50 (DU-145) was > 100 µM (inactive). For the same molecule, the GI50 (EKVX) was > 100 µM (inactive), the GI50 (HCC 2998) was > 100 µM (inactive) and the GI50 (HCT-116) was > 100 µM (inactive). The GI50 (HCT-15) was > 100 µM, the GI50 (HOP-62) was > 100 µM (inactive) and the GI50 (HOP-92) was > 100 µM (inactive). For the same molecule, the GI50 (HT-29) was > 100 µM (inactive), the GI50 (Hs-578T) was > 100 µM (inactive) and the GI50 (IGROV-1) was > 100 µM (inactive). The GI50 (KM12) was > 100 µM (inactive), the GI50 (LOX IMVI) was > 100 µM (inactive) and the GI50 (M14) was > 100 µM (inactive). For the same molecule, the GI50 (MCF7) was > 100 µM (inactive), the GI50 (MDA-MB-231) was > 100 µM (inactive) and the GI50 (MDA-MB-435) was > 100 µM (inactive). For the same molecule, the GI50 (MDA-N) was > 100 µM (inactive), the GI50 (MOLT-4) was > 100 µM (inactive) and the GI50 (Malme-3M) was > 100 µM (inactive). The GI50 (NCI-H226) was > 100 µM (inactive), the GI50 (NCI-H23) was > 100 µM (inactive) and the GI50 (NCI-H460) was > 100 µM (inactive). The GI50 (NCI-H522) was > 100 µM (inactive), the GI50 (OVCAR-3) was > 100 µM (inactive) and the GI50 (OVCAR-4) was > 100 µM (inactive). For the same molecule, the GI50 (OVCAR-5) was > 100 µM (inactive), the GI50 (OVCAR-8) was > 100 µM (inactive) and the GI50 (PC-3) was > 100 µM (inactive). For the same molecule, the GI50 (RPMI-8226) was > 100 µM (inactive), the GI50 (RXF 393) was > 100 µM (inactive) and the GI50 (SF-268) was > 100 µM (inactive). The GI50 (SF-295) was > 100 µM (inactive), the GI50 (SF-539) was > 100 µM (inactive) and the GI50 (SK-MEL-28) was > 100 µM (inactive). For the same molecule, the GI50 (SK-MEL-2) was > 100 µM (inactive), the GI50 (SK-MEL-5) was > 100 µM (inactive) and the GI50 (SK-OV-3) was > 100 µM (inactive). For the same molecule, the GI50 (SN12C) was > 100 µM (inactive), the GI50 (SNB-19) was > 100 µM (inactive) and the GI50 (SNB-75) was > 100 µM (inactive). The GI50 (SR) was > 100 µM (inactive), the GI50 (SW-620) was > 100 µM (inactive) and the GI50 (T47D) was > 100 µM (inactive). The GI50 (TK-10) was > 100 µM (inactive), the GI50 (U-251) was > 100 µM (inactive) and the GI50 (UACC-257) was > 100 µM (inactive). The GI50 (UACC-62) was > 100 µM (inactive) and the GI50 (UO-31) was > 100 µM (inactive).
`COc1cc(/C=C2\C(=O)N(c3ccccc3Cl)C(c3ccccc3)S2(=O)=O)cc(OC)c1OC` (stereo unspecified) was tested, and the GI50 (786-0) was 31.2 µM (inactive), the GI50 (A498) was > 100 µM (inactive) and the GI50 (A549) was 36.8 µM (inactive). The GI50 (ACHN) was > 100 µM (inactive), the GI50 (BT-549) was 36 µM (inactive) and the GI50 (CAKI-1) was 59.7 µM (inactive). The GI50 (CCRF-CEM) was 16 µM (inactive), the GI50 (COLO 205) was 36.4 µM (inactive) and the GI50 (DU-145) was 59 µM (inactive). For the same molecule, the GI50 (EKVX) was 41.4 µM (inactive), the GI50 (HCC 2998) was > 100 µM (inactive) and the GI50 (HCT-116) was 22.9 µM (inactive). For the same molecule, the GI50 (HCT-15) was 44.7 µM, the GI50 (HL-60) was 28.6 µM (inactive) and the GI50 (HOP-62) was 53 µM (inactive). The GI50 (HOP-92) was 41.3 µM (inactive), the GI50 (HT-29) was 16.3 µM (inactive) and the GI50 (Hs-578T) was 46.5 µM (inactive). For the same molecule, the GI50 (K562) was 22 µM (inactive), the GI50 (KM12) was 27.2 µM (inactive) and the GI50 (LOX IMVI) was 21.7 µM (inactive). The GI50 (M14) was 31.9 µM (inactive), the GI50 (MCF7) was 25.6 µM (inactive) and the GI50 (MDA-MB-231) was 49.9 µM (inactive). The GI50 (MDA-MB-435) was 33.3 µM (inactive), the GI50 (MDA-N) was 15.2 µM (inactive) and the GI50 (MOLT-4) was 15.3 µM (inactive). For the same molecule, the GI50 (Malme-3M) was 28.7 µM (inactive), the GI50 (NCI-H226) was 42 µM (inactive) and the GI50 (NCI-H23) was 39.1 µM (inactive). The GI50 (NCI-H460) was 52.2 µM (inactive), the GI50 (NCI-H522) was 20.9 µM (inactive) and the GI50 (NCI/ADR-RES) was 29.6 µM (inactive). The GI50 (OVCAR-3) was 47.4 µM (inactive), the GI50 (OVCAR-4) was 57.3 µM (inactive) and the GI50 (OVCAR-5) was 20.9 µM (inactive). The GI50 (OVCAR-8) was 45.8 µM (inactive), the GI50 (RPMI-8226) was 17.2 µM (inactive) and the GI50 (RXF 393) was 19.5 µM (inactive). The GI50 (SF-268) was 46.7 µM (inactive), the GI50 (SF-295) was 34 µM (inactive) and the GI50 (SF-539) was 20 µM (inactive). For the same molecule, the GI50 (SK-MEL-28) was 39 µM (inactive), the GI50 (SK-MEL-2) was 44.1 µM (inactive) and the GI50 (SK-MEL-5) was 18.6 µM (inactive). The GI50 (SK-OV-3) was 30.7 µM (inactive), the GI50 (SN12C) was 20.8 µM (inactive) and the GI50 (SNB-19) was 34.7 µM (inactive). For the same molecule, the GI50 (SW-620) was 37.3 µM (inactive), the GI50 (T47D) was 32.8 µM (inactive) and the GI50 (TK-10) was 62.7 µM (inactive). The GI50 (U-251) was 24.2 µM (inactive), the GI50 (UACC-257) was 51.1 µM (inactive) and the GI50 (UACC-62) was 31.9 µM (inactive). The GI50 (UO-31) was 30.3 µM (inactive).
